Data taken from patent US20230277632A1, “MODIFIED PlySs2 LYSINS AND ANTIBIOTIC COMBINATIONS FOR USE AGAINST GRAM-POSITIVE BACTERIA” (ContraFect Corporation, priority 2020, published 2023).
In brackets after ≈: the same amount, converted by molar mass. Several values for one entry are separate records, joined by “and”; a condition that tells them apart may be missing. Equal values may be shown once.

What was measured:
S. aureus = assay: pp296 dose fractionation study, neutropenic murine thigh infection model; format: in vivo; conditions: vancomycin 3 mg/kg Q12h SC alone, 24 h
Protocol: Each of the pp296 TDDs was fractionated into three regimens, i.e., one-third of the entire dose was administered via IV three times (q8h); one-half of the entire does was administered via IV two times (q12h), or the entire dose was administered via IV once daily over a 24-hour period, for a total of three groups per each TDD.
Untreated control mice (n=3/group) were sacrificed just prior to antibiotic administration, as well as 24 hours later. Animals sacrificed prior to antibiotic administration served as 0-hour control animals, representing initial bacterial burden. The 24-hour control animals received sterile normal saline in the same volume and schedule as the most frequent active drug regimen. […] After the 24-hour treatment period, all animals were euthanized and thighs were cultured quantitatively as described above. The change in bacterial density was calculated for each of the dosing regimen. Comparisons were made between the different regimens of the same total daily dose on bacterial burdens at 24 hours using one-way Analysis of Variance (ANOVA) test followed by Tukey's test where the P value was 0.05.

S. aureus isolates [1] = assay: Vancomycin dose-ranging, neutropenic murine thigh infection model; format: in vivo; conditions: 24 h
Protocol: (§1) Study animals: Specific pathogen-free female ICR mice (average body weight 23 grams) were provided food and water ad libitum and maintained and used in accordance with National Research Council recommendations. Animals were allowed a 48-hour post-delivery acclimation period before every experiment. Mice were rendered transiently neutropenic by injection of cyclophosphamide via intraperitoneal (IP) route at a dose of 150 mg/kg of body weight at four days before bacterial inoculation and 100 mg/kg of body weight at one day before bacterial inoculation.
(§2) Neutropenic Thigh Infection Model: Two transfers of the bacterial isolates were performed onto trypticase soy agar plates with 5% sheep blood and placed into an incubator at 37° C. for approximately 24 hours. After an 18-24 hour incubation of the second transfer, a suspension of approximately 10^7 CFU/mL was made for inoculation. Final bacterial inoculum concentrations were confirmed by serial dilution and plating techniques. Thigh infection with the test isolate was produced by intramuscular injection of 0.1 mL of the bacterial inoculum into each thigh of the mice. […]
Two hours post-bacterial inoculation, one group of mice (n=3) was sacrificed to serve as a 0 hour control, representing initial bacterial burden in the thigh, wherein bacterial burden is determined as the average CFU from 6 thighs, i.e., 2 thighs per mouse. […]

S. aureus isolates [2] = assay: In vivo efficacy of vancomycin in combination with pp296, neutropenic murine thigh infection model; conditions: 24 h; for Replicate Log10 CFU/thigh data: listed as VAN
Protocol: as §1
as §2, with “mice. Antimicrobial therapy was initiated 2 hours after bacterial inoculation, as detailed below.” for “mice.”
Untreated control mice (n=3) were sacrificed just prior to antibiotic administration and 24 hours after bacterial inoculation. Animals sacrificed prior to antibiotic initiation served as 0-hour control animals, representing initial bacterial burden. […] Treatment mice (n=3/group) were sacrificed at the end of the 24 hour treatment period. After sacrifice, both thighs for each mouse were homogenized in normal saline. Serial dilutions were plated on Trypticase soy agar with 5% sheep blood and incubated for 18 to 20 hours at 37.0 to determine the CFU. Efficacy was calculated as the change in bacterial density obtained in treated mice after 24 hours compared with the numbers in the 0-hour control animals. Bacterial density represents the average CFU determined from 3 mice, each contributing 2 thighs.

S. aureus isolates [3] = assay: MIC determination (broth microdilution) against 8 S. aureus isolates; format: cell-based; conditions: CAMHB, unit assumed
Protocol: Suitable methods for assessing the activity of a modified lysin polypeptide as disclosed herein are well known in the art and described in the examples. […] For example, MIC values for a modified lysin polypeptide may be determined against e.g., laboratory Staphylococcus aureus strains, in e.g., Mueller-Hinton broth or Mueller-Hinton broth supplemented with serum, such as horse serum.
The pp296 MICs were determined based on (1) cation-adjusted Mueller-Hinton Broth with 25% horse serum and 0.5 mM DTT (caMHB-HSD); (2) human serum (100% serum); and (3) ICR mice (100% serum). Vancomycin and daptomycin MICs of the isolate strains were determined in accordance with the broth microdilution method as outlined by CLSI. Results of the MIC determination are shown below in Table 2. The bacterial isolates were frozen at −80° C. in skim milk.

In the case of CN[C@H](CC(C)C)C(=O)N[C@H]1C(=O)N[C@@H](CC(N)=O)C(=O)N[C@H]2C(=O)N[C@H]3C(=O)N[C@H](C(=O)N[C@H](C(=O)O)c4cc(O)cc(O)c4-c4cc3ccc4O)[C@H](O)c3ccc(c(Cl)c3)Oc3cc2cc(c3O[C@@H]2O[C@H](CO)[C@@H](O)[C@H](O)[C@H]2O[C@H]2C[C@](C)(N)[C@H](O)[C@H](C)O2)Oc2ccc(cc2Cl)[C@H]1O [Vancomycin, vancomycin], the “bacterial burden vs 0-hour control mice” value (S. aureus) was 0.41±0.62 log10 CFU/thigh, the “bacterial burden reduction vs 0-hour controls” value (S. aureus isolates [1]; upper end of dose-response, vancomycin 3.125-25 mg/kg q12h SC, all isolates) was −1.15±0.40 log10 CFU/thigh and the “mean bacterial burden change vs 0-hour controls” value (S. aureus isolates [1]; vancomycin 3.125 mg/kg q12h SC, mean of 8 isolates) was −0.05±1.16 log10 CFU/thigh. The “Replicate Log10 CFU/thigh data” value (S. aureus isolates [2]; ATCC2921, VAN 3 mg/kg alone) was 4.59 Log10 CFU/thigh and 4.96 Log10 CFU/thigh and 7.87 Log10 CFU/thigh and 5.18 Log10 CFU/thigh and 7.18 Log10 CFU/thigh and 6.03 Log10 CFU/thigh, the “Replicate Log10 CFU/thigh data” value (S. aureus isolates [2]; CAIRD426, VAN 1.5 mg/kg alone) was 6.89 Log10 CFU/thigh and 6.51 Log10 CFU/thigh and 7.97 Log10 CFU/thigh and 8.04 Log10 CFU/thigh and the “Replicate Log10 CFU/thigh data” value (S. aureus isolates [2]; CAIRD426, VAN 3 mg/kg alone, Run #1) was 4.81 Log10 CFU/thigh and 7.53 Log10 CFU/thigh and 6.53 Log10 CFU/thigh. For the same molecule, the “Replicate Log10 CFU/thigh data” value (S. aureus isolates [2]; CAIRD426, VAN 3 mg/kg alone, Run #2) was 7.82 Log10 CFU/thigh and 8.21 Log10 CFU/thigh and 7.74 Log10 CFU/thigh and 7.40 Log10 CFU/thigh and 7.47 Log10 CFU/thigh and 7.20 Log10 CFU/thigh, the “Replicate Log10 CFU/thigh data” value (S. aureus isolates [2]; HPV107, VAN 1.5 mg/kg alone) was 8.44 Log10 CFU/thigh and 8.20 Log10 CFU/thigh and 8.00 Log10 CFU/thigh and 7.87 Log10 CFU/thigh and 8.32 Log10 CFU/thigh and the “Replicate Log10 CFU/thigh data” value (S. aureus isolates [2]; HPV107, VAN 3 mg/kg alone, Run #1) was 7.50 Log10 CFU/thigh and 7.81 Log10 CFU/thigh and 7.24 Log10 CFU/thigh and 7.40 Log10 CFU/thigh and 7.36 Log10 CFU/thigh and 6.51 Log10 CFU/thigh. The “Replicate Log10 CFU/thigh data” value (S. aureus isolates [2]; HPV107, VAN 3 mg/kg alone, Run #2) was 7.49 Log10 CFU/thigh and 7.73 Log10 CFU/thigh and 5.45 Log10 CFU/thigh, the “Replicate Log10 CFU/thigh data” value (S. aureus isolates [2]; JMI227, VAN 3 mg/kg alone) was 7.50 Log10 CFU/thigh and 6.17 Log10 CFU/thigh and 8.04 Log10 CFU/thigh and 8.21 Log10 CFU/thigh and 8.47 Log10 CFU/thigh and 7.51 Log10 CFU/thigh and the “Replicate Log10 CFU/thigh data” value (S. aureus isolates [2]; JMI4789, VAN 3 mg/kg alone) was 8.41 Log10 CFU/thigh and 8.01 Log10 CFU/thigh and 6.93 Log10 CFU/thigh (2×) and 4.92 Log10 CFU/thigh. For the same molecule, the “Replicate Log10 CFU/thigh data” value (S. aureus isolates [2]; NRS100, VAN 1.5 mg/kg alone) was 6.30 Log10 CFU/thigh and 4.89 Log10 CFU/thigh and 4.85 Log10 CFU/thigh and 4.30 Log10 CFU/thigh and 4.69 Log10 CFU/thigh and 6.73 Log10 CFU/thigh, the “Replicate Log10 CFU/thigh data” value (S. aureus isolates [2]; NRS100, VAN 3 mg/kg alone, Run #1) was 4.58 Log10 CFU/thigh (2×) and 4.90 Log10 CFU/thigh and 4.89 Log10 CFU/thigh and 4.48 Log10 CFU/thigh and 4.56 Log10 CFU/thigh and the “Replicate Log10 CFU/thigh data” value (S. aureus isolates [2]; NRS100, VAN 3 mg/kg alone, Run #2) was 4.75 Log10 CFU/thigh and 6.89 Log10 CFU/thigh and 4.70 Log10 CFU/thigh and 4.58 Log10 CFU/thigh and 4.83 Log10 CFU/thigh and 6.46 Log10 CFU/thigh. For the same molecule, the “Replicate Log10 CFU/thigh data” value (S. aureus isolates [2]; NRS123, VAN 3 mg/kg alone) was 7.17 Log10 CFU/thigh and 7.02 Log10 CFU/thigh and 7.77 Log10 CFU/thigh and 8.38 Log10 CFU/thigh and 8.32 Log10 CFU/thigh and 8.01 Log10 CFU/thigh, the “Replicate Log10 CFU/thigh data” value (S. aureus isolates [2]; NRS217, VAN 1.5 mg/kg alone) was 7.60 Log10 CFU/thigh and 8.28 Log10 CFU/thigh and 8.26 Log10 CFU/thigh and 7.90 Log10 CFU/thigh and 6.43 Log10 CFU/thigh and 7.61 Log10 CFU/thigh and the “Replicate Log10 CFU/thigh data” value (S. aureus isolates [2]; NRS217, VAN 3 mg/kg alone, Run #1) was 6.66 Log10 CFU/thigh and 6.70 Log10 CFU/thigh and 7.23 Log10 CFU/thigh and 6.68 Log10 CFU/thigh and 7.60 Log10 CFU/thigh and 6.55 Log10 CFU/thigh. For the same molecule, the “Replicate Log10 CFU/thigh data” value (S. aureus isolates [2]; NRS217, VAN 3 mg/kg alone, Run #2) was 7.06 Log10 CFU/thigh and 7.38 Log10 CFU/thigh and 5.26 Log10 CFU/thigh and 4.73 Log10 CFU/thigh and 6.82 Log10 CFU/thigh, the “Replicate Log10 CFU/thigh data” value (S. aureus isolates [2]; isolate HPV107, VAN 5 mg/kg q12h SC alone) was 4.73 Log10 CFU/thigh and 8.28 Log10 CFU/thigh and 4.75 Log10 CFU/thigh and 4.88 Log10 CFU/thigh and the “Replicate Log10 CFU/thigh data” value (S. aureus isolates [2]; isolate NRS100, VAN 5 mg/kg q12h SC alone) was 4.68 Log10 CFU/thigh (2×) and 4.78 Log10 CFU/thigh (2×) and 4.56 Log10 CFU/thigh and 4.73 Log10 CFU/thigh. For the same molecule, the “Replicate Log10 CFU/thigh data” value (S. aureus isolates [2]; isolate NRS217, VAN 5 mg/kg q12h SC alone) was 4.64 Log10 CFU/thigh and 6.13 Log10 CFU/thigh and 4.76 Log10 CFU/thigh and 4.56 Log10 CFU/thigh and 4.75 Log10 CFU/thigh, the “average bacterial growth vs starting inoculum” value (S. aureus isolates [2]; vancomycin 1.5 mg/kg Q12h SC alone, 4 isolates) was 2.75±0.52 log10 CFU/thigh and the “average bacterial reduction vs starting inoculum” value (S. aureus isolates [2]; vancomycin 5 mg/kg q12h SC alone, 4 isolates) was −0.38±1.10 log10 CFU/thigh. The MIC Vancomycin (CAMHB) (S. aureus isolates [3]; ATCC 29213 MSSA) was 1 µg/mL (≈ 0.69 µM), the MIC Vancomycin (CAMHB) (S. aureus isolates [3]; CAIRD426 MRSA) was 1 µg/mL (≈ 0.69 µM) and the MIC Vancomycin (CAMHB) (S. aureus isolates [3]; HPV107 MRSA) was 1 µg/mL (≈ 0.69 µM). For the same molecule, the MIC Vancomycin (CAMHB) (S. aureus isolates [3]; JMI227 MRSA) was 1 µg/mL (≈ 0.69 µM), the MIC Vancomycin (CAMHB) (S. aureus isolates [3]; JMI4789 MRSA) was 1 µg/mL (≈ 0.69 µM) and the MIC Vancomycin (CAMHB) (S. aureus isolates [3]; NRS100 (COL) MRSA) was 1 µg/mL (≈ 0.69 µM). The MIC Vancomycin (CAMHB) (S. aureus isolates [3]; NRS123 (MW2) MRSA) was 1 µg/mL (≈ 0.69 µM) and the MIC Vancomycin (CAMHB) (S. aureus isolates [3]; NRS271 MRSA/LRSA) was 1 µg/mL (≈ 0.69 µM).
